Laboratory results reported in BindingDB's records for doi:10.1016/s0960-894x(02)00455-9 (Fukui Research Institute, 2002).

Legend:
[1] = biological target: Nitric oxide synthase, inducible (Homo sapiens, UniProt P35228); experiment: ChEBML_89186
From the text: Concentration required to inhibit Inducible nitric oxide synthase over expressed in A549 cells

[2] = biological target: T1, Nitric oxide synthase, endothelial (Homo sapiens, UniProt P29474); experiment: ChEBML_64984
T1 sequence (P29474 whole entry): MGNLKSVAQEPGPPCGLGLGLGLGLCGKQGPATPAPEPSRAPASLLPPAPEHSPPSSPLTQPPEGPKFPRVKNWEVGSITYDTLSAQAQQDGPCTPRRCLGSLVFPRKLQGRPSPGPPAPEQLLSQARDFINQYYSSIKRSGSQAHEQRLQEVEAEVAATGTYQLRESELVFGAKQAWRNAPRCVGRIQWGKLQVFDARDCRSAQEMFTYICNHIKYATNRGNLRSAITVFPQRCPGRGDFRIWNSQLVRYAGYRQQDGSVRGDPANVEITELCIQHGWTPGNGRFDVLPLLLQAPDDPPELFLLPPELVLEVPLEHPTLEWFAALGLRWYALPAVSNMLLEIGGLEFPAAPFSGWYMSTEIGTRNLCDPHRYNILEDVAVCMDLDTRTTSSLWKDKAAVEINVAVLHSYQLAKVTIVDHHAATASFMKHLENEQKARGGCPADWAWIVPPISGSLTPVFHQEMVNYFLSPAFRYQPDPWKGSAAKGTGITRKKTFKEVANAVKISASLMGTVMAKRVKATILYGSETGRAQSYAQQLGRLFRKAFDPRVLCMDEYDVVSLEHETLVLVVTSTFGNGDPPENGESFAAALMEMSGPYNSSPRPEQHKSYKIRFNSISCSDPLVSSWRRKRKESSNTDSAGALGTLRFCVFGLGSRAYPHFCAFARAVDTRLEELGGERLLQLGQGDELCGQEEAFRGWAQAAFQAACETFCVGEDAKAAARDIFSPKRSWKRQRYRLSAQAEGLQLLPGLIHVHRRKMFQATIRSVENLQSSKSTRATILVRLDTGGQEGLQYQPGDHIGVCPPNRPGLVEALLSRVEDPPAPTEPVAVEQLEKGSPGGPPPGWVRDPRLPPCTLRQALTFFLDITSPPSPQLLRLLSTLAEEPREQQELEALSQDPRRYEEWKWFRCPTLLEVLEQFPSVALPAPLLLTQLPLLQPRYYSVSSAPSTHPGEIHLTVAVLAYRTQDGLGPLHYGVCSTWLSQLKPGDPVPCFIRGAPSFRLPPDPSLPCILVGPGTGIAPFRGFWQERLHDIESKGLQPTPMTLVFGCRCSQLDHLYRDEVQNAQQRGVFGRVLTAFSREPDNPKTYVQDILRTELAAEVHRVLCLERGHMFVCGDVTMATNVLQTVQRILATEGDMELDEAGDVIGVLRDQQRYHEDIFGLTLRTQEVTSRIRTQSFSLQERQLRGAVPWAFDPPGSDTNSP
From the text: Inhibition of human endothelial Nitric Oxide Synthase expressed in Sf-21 cells

Chain of Nitric oxide synthase, inducible (P35228 whole entry): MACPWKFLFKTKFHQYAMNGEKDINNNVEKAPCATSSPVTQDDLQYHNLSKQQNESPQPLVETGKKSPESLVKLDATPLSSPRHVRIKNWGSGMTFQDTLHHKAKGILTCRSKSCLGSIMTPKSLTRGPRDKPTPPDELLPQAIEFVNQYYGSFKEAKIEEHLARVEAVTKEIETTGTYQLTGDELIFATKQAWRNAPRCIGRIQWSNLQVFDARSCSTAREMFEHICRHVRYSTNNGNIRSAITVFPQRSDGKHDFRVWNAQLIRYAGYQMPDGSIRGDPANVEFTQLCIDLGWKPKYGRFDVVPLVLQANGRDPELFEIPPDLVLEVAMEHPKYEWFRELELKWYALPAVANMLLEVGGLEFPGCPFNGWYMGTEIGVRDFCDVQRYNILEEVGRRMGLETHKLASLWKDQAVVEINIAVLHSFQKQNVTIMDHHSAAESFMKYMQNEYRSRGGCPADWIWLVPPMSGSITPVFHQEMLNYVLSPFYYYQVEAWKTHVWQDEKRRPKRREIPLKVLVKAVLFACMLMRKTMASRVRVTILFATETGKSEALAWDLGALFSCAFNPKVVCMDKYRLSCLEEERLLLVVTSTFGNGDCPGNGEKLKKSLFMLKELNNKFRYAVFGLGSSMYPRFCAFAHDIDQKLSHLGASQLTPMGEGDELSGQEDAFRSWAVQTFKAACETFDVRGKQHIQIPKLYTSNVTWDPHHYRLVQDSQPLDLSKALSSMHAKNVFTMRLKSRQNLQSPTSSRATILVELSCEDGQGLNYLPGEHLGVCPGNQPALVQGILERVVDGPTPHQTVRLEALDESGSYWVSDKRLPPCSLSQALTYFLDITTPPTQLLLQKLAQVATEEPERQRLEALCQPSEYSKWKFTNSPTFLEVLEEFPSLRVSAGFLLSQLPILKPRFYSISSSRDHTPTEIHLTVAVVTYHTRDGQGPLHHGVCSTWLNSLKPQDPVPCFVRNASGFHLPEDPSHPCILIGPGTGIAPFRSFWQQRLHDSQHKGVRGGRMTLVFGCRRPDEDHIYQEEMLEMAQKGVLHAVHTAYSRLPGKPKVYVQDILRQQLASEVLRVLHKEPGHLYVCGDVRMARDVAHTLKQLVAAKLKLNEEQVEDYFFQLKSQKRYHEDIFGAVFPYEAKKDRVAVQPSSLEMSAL

CC1=CC(N)=NCC1
IC50 [1]: 700 nM | IC50 [2]: 440 nM
